Results taken from PubChem BioAssay AID248 (DTP/NCI, 2004).
Where “and” joins values, the source holds several entries; their conditions need not be identical. Identical values can stand only once. Inconclusive results and toxic doses are left out. Rule as the data show it: active = T/C of 150% or more; inactive = T/C below 125%.

Test system: L1210 leukemia ip in BDF1 mice, survival T/C
Experiment: NCI In Vivo Anticancer Drug Screen. Data for tumor model L1210 Leukemia (intraperitoneal) in B6D2F1 (BDF1) mice
Details: endpoint: mean survival time, higher = longer survival
Procedure, shortened: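 Tumor cells were implanted, animals were treated, and survival was followed. The result divides the treated measurement by the vehicle-control measurement.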

[1] = dose: 75.0 mg/kg/injection, schedule: Q01DX001 (ip), vehicle: saline
[2] = dose: 150.0 mg/kg/injection, schedule: Q01DX001 (ip), vehicle: saline
[3] = dose: 100.0 mg/kg/injection, schedule: Q01DX001 (ip), vehicle: carboxymethylcellulose (CMC)
[4] = dose: 200.0 mg/kg/injection, schedule: Q01DX001 (ip), vehicle: carboxymethylcellulose (CMC)
[5] = dose: 400.0 mg/kg/injection, schedule: Q01DX001 (ip), vehicle: carboxymethylcellulose (CMC)
[6] = dose: 100.0 mg/kg/injection, schedule: Q01DX001 (ip), vehicle: saline
[7] = dose: 200.0 mg/kg/injection, schedule: Q01DX001 (ip), vehicle: saline
[8] = dose: 400.0 mg/kg/injection, schedule: Q01DX001 (ip), vehicle: saline
[9] = dose: 100.0 mg/kg/injection, schedule: Q01DX009 (ip), vehicle: Klucel (hydroxypropylcellulose) (HPC)
[10] = dose: 100.0 mg/kg/injection, schedule: Q04DX002 (ip), vehicle: Klucel (hydroxypropylcellulose) (HPC)
[11] = dose: 200.0 mg/kg/injection, schedule: Q04DX002 (ip), vehicle: Klucel (hydroxypropylcellulose) (HPC)
[12] = dose: 400.0 mg/kg/injection, schedule: Q04DX002 (ip), vehicle: Klucel (hydroxypropylcellulose) (HPC)
[13] = dose: 100.0 mg/kg/injection, schedule: Q04DX003 (ip), vehicle: Klucel (hydroxypropylcellulose) (HPC)
[14] = dose: 300.0 mg/kg/injection, schedule: Q01DX001 (ip), vehicle: saline
[15] = dose: 100.0 mg/kg/injection, schedule: Q04DX003 (ip), vehicle: saline
[16] = dose: 200.0 mg/kg/injection, schedule: Q04DX003 (ip), vehicle: saline
[17] = dose: 400.0 mg/kg/injection, schedule: Q04DX003 (ip), vehicle: saline

Measured: T/C

CNC(=O)Oc1ccccc1CCl
inactive: dose: 50.0 mg/kg/injection, schedule: Q01DX001 (ip), vehicle: Klucel (hydroxypropylcellulose) (HPC) 97 % of control | dose: 100.0 mg/kg/injection, schedule: Q01DX001 (ip), vehicle: Klucel (hydroxypropylcellulose) (HPC) 97 % of control | dose: 200.0 mg/kg/injection, schedule: Q01DX001 (ip), vehicle: Klucel (hydroxypropylcellulose) (HPC) 92 % of control

C=C1C(=O)OC2CC3(C)C(OC(C)=O)CC=C(C)C3C(OC(C)=O)C12 (stereo not given) (tested in a mixture with another compound)
inactive: [1] 96 % of control | [2] 100 % of control

CCCCC1=C(C)C(=O)OC1=O
inactive: dose: 100.0 mg/kg/injection, schedule: Q04DX003 (ip), vehicle: saline with Tween-80 95 % of control | dose: 200.0 mg/kg/injection, schedule: Q04DX003 (ip), vehicle: saline with Tween-80 95 % of control | dose: 400.0 mg/kg/injection, schedule: Q04DX003 (ip), vehicle: saline with Tween-80 103 % of control

Nc1nc(N)c2nc(-c3ccccc3)c(N)nc2n1
inactive: dose: 2.13 mg/kg/injection, schedule: Q01DX Z (ip), vehicle: other 91 % of control | dose: 6.25 mg/kg/injection, schedule: Q01DX Z (ip), vehicle: other 97 % of control | dose: 12.5 mg/kg/injection, schedule: Q01DX Z (ip), vehicle: other 105 % of control

Cc1ccnc(NS(=O)(=O)c2ccc(N=Nc3c(N)[nH]c(=S)[nH]c3=O)cc2)n1
inactive: [3] 97 % of control | [4] 95 % of control | [5] 95 % of control

CCOC(=O)CCNC(COCc1ccccc1)C(=O)OCC (stereo not given)
inactive: [6] 98 % of control | [7] 95 % of control | [8] 106 % of control

Cc1nc(N(C)C)[nH]c(=O)c1CCCNc1ccccc1
inactive: dose: 100.0 mg/kg/injection, schedule: Q01DX001 (ip), vehicle: saline with Tween-80 111 % of control | dose: 200.0 mg/kg/injection, schedule: Q01DX001 (ip), vehicle: saline with Tween-80 96 % of control | dose: 400.0 mg/kg/injection, schedule: Q01DX001 (ip), vehicle: saline with Tween-80 100 % of control

O=C(NCCBr)c1cccc2ccccc12
inactive: [9] 106 % of control | dose: 200.0 mg/kg/injection, schedule: Q01DX009 (ip), vehicle: Klucel (hydroxypropylcellulose) (HPC) 97 % of control | dose: 400.0 mg/kg/injection, schedule: Q01DX009 (ip), vehicle: Klucel (hydroxypropylcellulose) (HPC) 95 % of control

Cc1ccc(C(C)C)c(OC(=O)Nc2ccc(S(=O)(=O)NC3CCCCC3)cc2)c1
inactive: [6] 94 % of control | [7] 96 % of control | [8] 94 % of control

CC(=O)OC1COC(n2cnc3c(N4CCCCC4)ncnc32)C(OC(C)=O)C1OC(C)=O (stereo not given)
inactive: [6] 100 % of control | [7] 96 % of control | [8] 96 % of control

S=P(N1CCOCC1)(N1CCOCC1)N1CCOCC1
inactive: [10] 103 % of control | [11] 89 % of control | [12] 113 % of control

C/C(CC(O)(C(F)(F)F)C(F)(F)F)=N\N1CCCCCC1
inactive: [13] 97 % of control | dose: 200.0 mg/kg/injection, schedule: Q04DX003 (ip), vehicle: Klucel (hydroxypropylcellulose) (HPC) 103 % of control | dose: 400.0 mg/kg/injection, schedule: Q04DX003 (ip), vehicle: Klucel (hydroxypropylcellulose) (HPC) 94 % of control

COC1=C(N)C(=O)c2ncccc2C1=O
inactive: dose: 4.0 mg/kg/injection, schedule: Q01DX009 (ip), vehicle: acetone 105 % of control | dose: 8.0 mg/kg/injection, schedule: Q01DX009 (ip), vehicle: acetone 105 % of control | dose: 16.0 mg/kg/injection, schedule: Q01DX009 (ip), vehicle: acetone 102 % of control

CN(C)c1ccc2nc3ccc(=O)cc-3sc2c1
inactive: dose: 50.0 mg/kg/injection, schedule: Q04DX002 (ip), vehicle: Klucel (hydroxypropylcellulose) (HPC) 88 % of control | [10] 95 % of control | [11] 92 % of control | [12] 95 % of control

CCOC(=O)C1=C(O)C(=O)C(C(=O)OCC)C1 (stereo not given)
inactive: [1] 86 % of control | [2] 106 % of control | [14] 90 % of control

c1ccc(-c2csc3n4ccccc4c[n+]23)cc1
inactive: dose: 6.25 mg/kg/injection, schedule: Q04DX002 (ip), vehicle: saline with Tween-80 97 % of control | dose: 12.5 mg/kg/injection, schedule: Q04DX002 (ip), vehicle: saline with Tween-80 100 % of control | dose: 25.0 mg/kg/injection, schedule: Q04DX002 (ip), vehicle: saline with Tween-80 93 % of control

CCCCCCCC(=O)N1C(C)CCCC1C (stereo not given)
inactive: dose: 100.0 mg/kg/injection, schedule: Q04DX002 (ip), vehicle: saline 114 % of control | dose: 200.0 mg/kg/injection, schedule: Q04DX002 (ip), vehicle: saline 111 % of control | dose: 400.0 mg/kg/injection, schedule: Q04DX002 (ip), vehicle: saline 104 % of control

COC1OC(COC(=S)SCC2OC(OC)C(OC)C(OC)C2OC)C(OC)C(OC)C1OC (stereo not given)
inactive: [10] 100 % of control | [11] 93 % of control and 92 % of control | [12] 96 % of control and 89 % of control

CCOC(=O)C(O)(CC)c1ccncc1C (stereo not given)
inactive: [15] 96 % of control | [16] 98 % of control | [17] 100 % of control

Cn1c(=S)[nH]c2cc(Cl)c(Cl)cc21
inactive: [15] 100 % of control | [16] 105 % of control | [17] 97 % of control

O=c1c2c(oc3c(Cl)cc(Cl)cc13)CCCC2
inactive: dose: 50.0 mg/kg/injection, schedule: Q04DX002 (ip), vehicle: gum acacia 100 % of control | dose: 100.0 mg/kg/injection, schedule: Q04DX002 (ip), vehicle: gum acacia 104 % of control | dose: 200.0 mg/kg/injection, schedule: Q04DX002 (ip), vehicle: gum acacia 104 % of control

O=C1N(Cl)C(=O)C(c2ccc(Cl)cc2)(c2ccc(Cl)cc2)N1Cl
inactive: dose: 12.5 mg/kg/injection, schedule: Q01DX009 (ip), vehicle: saline with Tween-80 98 % of control | dose: 25.0 mg/kg/injection, schedule: Q01DX009 (ip), vehicle: Klucel (hydroxypropylcellulose) (HPC) 106 % of control | dose: 25.0 mg/kg/injection, schedule: Q01DX009 (ip), vehicle: saline with Tween-80 96 % of control | dose: 25.0 mg/kg/injection, schedule: Q04DX003 (ip), vehicle: Klucel (hydroxypropylcellulose) (HPC) 113 % of control | dose: 50.0 mg/kg/injection, schedule: Q01DX001 (ip), vehicle: carboxymethylcellulose (CMC) 101 % of control | dose: 50.0 mg/kg/injection, schedule: Q01DX009 (ip), vehicle: Klucel (hydroxypropylcellulose) (HPC) 106 % of control | dose: 50.0 mg/kg/injection, schedule: Q01DX009 (ip), vehicle: saline with Tween-80 102 % of control | dose: 50.0 mg/kg/injection, schedule: Q04DX003 (ip), vehicle: Klucel (hydroxypropylcellulose) (HPC) 106 % of control | [3] 108 % of control | [9] 98 % of control | dose: 100.0 mg/kg/injection, schedule: Q01DX009 (ip), vehicle: saline sonified 122 % of control | dose: 100.0 mg/kg/injection, schedule: Q01DX009 (ip), vehicle: saline with Tween-80 106 % of control | [13] 108 % of control | [4] 102 % of control | dose: 200.0 mg/kg/injection, schedule: Q01DX009 (ip), vehicle: saline sonified 93 % of control | dose: 200.0 mg/kg/injection, schedule: Q01DX009 (ip), vehicle: saline with Tween-80 106 % of control | [5] 103 % of control

O=C(NCCc1ccccc1)c1ccc2ccccc2n1
inactive: dose: 3.12 mg/kg/injection, schedule: Q01DX009 (ip), vehicle: DMSO 93 % of control | dose: 6.25 mg/kg/injection, schedule: Q01DX009 (ip), vehicle: DMSO 93 % of control | dose: 12.5 mg/kg/injection, schedule: Q01DX009 (ip), vehicle: DMSO 91 % of control | dose: 25.0 mg/kg/injection, schedule: Q01DX009 (ip), vehicle: DMSO 90 % of control | dose: 100.0 mg/kg/injection, schedule: Q04DX003 (ip), vehicle: DMSO 95 % of control | dose: 200.0 mg/kg/injection, schedule: Q04DX003 (ip), vehicle: DMSO 97 % of control | dose: 400.0 mg/kg/injection, schedule: Q04DX003 (ip), vehicle: DMSO 95 % of control

Oc1cc2c(cc1O)CN1CCc3cc(O)c(O)cc3C1C2 (stereo not given)
inactive: [1] 103 % of control | [2] 105 % of control | [14] 93 % of control
